Laboratory results from PMC7395068, “The evolution of strategies to minimise the risk of human drug-induced liver injury (DILI) in drug discovery and development” (Archives of Toxicology, 2020).
Like-named read-outs stand apart in the source and are kept apart here.

Experiments:
[1] = cited from earlier work
[2] = system: human hepatocytes; settings: cited from earlier work
[3] = system: PHH spheroids; settings: In vitro Assay; ref Vorrink 2018; cited from earlier work
[4] = cited from earlier work; remark: listed apart in the source
[5] = system: HepaRG spheroids; assay: Combined HCI (HCS) and cellular ATP 3D assay in HepaRG spheroids; settings: Homo sapiens, HepaRG
[6] = system: hLiMTs; assay: Combined HCI (HCS) and cellular ATP 3D assay in hLiMTs; settings: Homo sapiens
[7] = system: rBsep; settings: cited from earlier work
[8] = system: THLE or HepG2 cells, isolated mitochondria, BSEP; settings: In vitro Assay; ref Aleo 2019; cited from earlier work

| SMILES | In vivo DILI ([1]; ref Vorrink 2018) | In vivo DILI ([1]; ref Xu 2008) | hLiMTs ATP <20 x Cmax [3] | Structural based (HCI) ([2]; In vitro Assay, ref Xu 2008) | other results |
| --- | --- | --- | --- | --- | --- |
| CCCSc1ccc2nc(NC(=O)OC)[nH]c2c1 [albendazole] | +VE | +VE | -VE | – | Structural based (HCI) [2]: +VE; DILI +VE (5-8), DILI -VE (-4) ([4]; ref Chen 2016): +VE; DILI severity category ([4]; ref Chen 2016): vMost-DILI-Concern |
| N=C(N)NC(=O)c1nc(Cl)c(N)nc1N [amiloride] | – | – | -VE | – | In vivo DILI ([1]; in vivo): -VE; DILI +VE (5-8), DILI -VE (-4) ([4]; in vivo): +VE; DILI severity category ([4]; in vivo): vLess-DILI-Concern |
| CCC1(c2ccc(N)cc2)CCC(=O)NC1=O (stereo not drawn) [aminoglutethimide] | -VE | -VE | -VE | -VE | – |
| Clc1ccc2c(c1)C(N1CCNCC1)=Nc1ccccc1O2 [amoxapine] | -VE | -VE | -VE | -VE | DILI +VE (5-8), DILI -VE (-4) ([4]; ref Chen 2016): -VE; DILI severity category ([4]; ref Chen 2016): Ambiguous DILI-concern |
| Nc1cc(-c2ccncc2)c[nH]c1=O [amrinone] | +VE | +VE | -VE | -VE | DILI +VE (5-8), DILI -VE (-4) ([4]; ref Chen 2016): -VE; DILI severity category ([4]; ref Chen 2016): Ambiguous DILI-concern |
| CC(C)COCC(CN(Cc1ccccc1)c1ccccc1)N1CCCC1 (stereo not drawn) [bepridil] | +VE | +VE | +VE (IC20 < 20 × Cmax.tot cut-off) | +VE | – |
| CN(C)CCC(c1ccc(Br)cc1)c1ccccn1 (stereo not drawn) [brompheniramine] | – | – | -VE | -VE | – |
| C[C@H](CCC(=O)O)[C@H]1CC[C@H]2[C@@H]3[C@H](O)C[C@@H]4C[C@H](O)CC[C@]4(C)[C@H]3CC[C@]12C [chenodiol] | +VE | +VE | +VE (IC20 < 20 × Cmax.tot cut-off) | +VE | DILI +VE (5-8), DILI -VE (-4) ([4]; ref Chen 2016): -VE; DILI severity category ([4]; ref Chen 2016): Ambiguous DILI-concern |
| Cc1cc(C2CCCCC2)n(O)c(=O)c1 [ciclopirox] | -VE | -VE | -VE | -VE | – |
| CCN(CC)C(=O)N1CCN(C)CC1 [diethylcarbamazine] | – | – | -VE | -VE | – |
| COc1ccc([C@@H]2Sc3ccccc3N(CCN(C)C)C(=O)[C@@H]2OC(C)=O)cc1 [diltiazem] | – | – | -VE | -VE | – |
| CC(CCc1ccc(O)cc1)NCCc1ccc(O)c(O)c1 (stereo not drawn) [dobutamine] | -VE | -VE | -VE | -VE | DILI +VE (5-8), DILI -VE (-4) ([4]; ref Chen 2016): -VE; DILI severity category ([4]; ref Chen 2016): vNo-DILI-Concern |
| COc1cc2c(cc1OC)C(=O)C(CC1CCN(Cc3ccccc3)CC1)C2 (stereo not drawn) [donepezil] | – | – | – | – | minimal effective concentration ([5]; read-out: ATP endpoint MEC): 6.49 µM; minimal effective concentration ([5]; read-out: HCS endpoint MEC): 9.43 µM; AC50 ([6]; read-out: ATP endpoint AC50): 9.76 µM; minimal effective concentration ([6]; read-out: ATP endpoint MEC): 3.17 µM; AC50 ([6]; read-out: HCS endpoint AC50): 7.19 µM; minimal effective concentration ([6]; read-out: HCS endpoint MEC): 0.487 µM; Inhibition of rBsep cutoff<3 [7]: -VE |
| COC1=CC(=O)C[C@@H](C)[C@]12Oc1c(Cl)c(OC)cc(OC)c1C2=O [griseofulvin] | – | – | -VE | -VE | Partition Hybrid HRM Score [8]: +VE; Ro2 Hybrid HRM Score [8]: +VE |
| C[C@]12CCC(=O)C=C1CC[C@@H]1[C@@H]2[C@@H](O)C[C@@]2(C)[C@H]1CC[C@]2(O)C(=O)CO [hydrocortisone] | – | – | -VE | -VE | In vivo DILI ([1]; in vivo): -VE; DILI +VE (5-8), DILI -VE (-4) ([4]; in vivo): -VE; DILI severity category ([4]; in vivo): vNo-DILI-Concern |
| N[C@@H](Cc1ccc(O)c(O)c1)C(=O)O [levodopa] | – | – | -VE | -VE | – |
| NCCCC[C@H](N[C@@H](CCc1ccccc1)C(=O)O)C(=O)N1CCC[C@H]1C(=O)O [lisinopril] | – | – | +VE (IC20 < 20 × Cmax.tot cut-off) | -VE | – |
